Earlier results as cited in patent publication US10653698B2, “Methods of improving myocardial performance in Fontan patients using udenafil compositions” (priority 2014, dated 2020).

Experiments:
[1] = system: children and young adults with single-ventricle physiology after the Fontan operation; settings: Shabanian et al. 2013; cited from earlier work
[2] = system: patients with Fontan circulation; settings: short term, once daily dosing; cited from earlier work

| Structure (SMILES) | ventricular systolic elastance [1] | ventriculo-arterial coupling [1] | exercise capacity [2] | ventilatory efficiency and oxygen saturation [2] |
| --- | --- | --- | --- | --- |
| CCCc1nn(C)c2c(=O)[nH]c(-c3cc(S(=O)(=O)N4CCN(C)CC4)ccc3OCC)nc12 [sildenafil] | increased | improved | – | – |
| CN1CC(=O)N2[C@H](c3ccc4c(c3)OCO4)c3[nH]c4ccccc4c3C[C@@H]2C1=O [tadalafil] | – | – | unchanged | improved |
